In patent publication US20120238915A1, “SOUND WAVE TREATMENT PLATFORM AND SOUND WAVE TREATMENT METHOD” (priority 2011, published 2012):

Legend:
[1] = tested on: non-operable pancreatic cancer
[2] = tested on: metastatic pancreatic cancer to liver; assay: Example 1: patient treated with non-focused sound waves with Bleomycin; assay type: in vivo, human; details: 30 mg Bleomycin + sound waves 0.3 MHz
Method: person one was diagnosed with metastatic pancreatic cancer to liver. Treatment history was as follows: Gemcitabine, Tykerb, Xeloda, and 6000R radiation therapy. Despite multiple treatments, patient's condition continues to worsen with increased abdominal pain. The patient was taking pain medication with constipation.
The patient was treated according to the present invention with 30 mg Bleomycin (Frequency: 0.3 MHz; power intensity: less than 2 W/cm^2; duration: less than 30 minutes). […] Their tumor marker CA19-9 decreased from 1465 to 406 in 9 days after the treatment. They remained pain free for 150 days after the treatment till their death clue to organ failure.

[3] = tested on: recurrent breast cancer and metastasis to the liver; assay: Example 9: patient treated with non-focused sound waves with Bleomycin; assay type: in vivo, human
Method: person two was diagnosed with recurrent breast cancer and metastasis to the liver. They had multiple chemotherapy and target medicine treatment.
The patient was treated twice (one week apart) according to the present invention with 30 mg Bleomycin each time (Frequency: 0.3 MHz; power intensity: less than 2 W/cm^2; duration: less than 30 minutes (each time)). […] Their right upper quadrant pain resolved and remained pain free over 18 months till last follow up.

terminal hepatoma = assay: Example 8: patient treated with non-focused sound waves with Bleomycin; assay type: in vivo, human; details: 30 mg Bleomycin + sound waves 0.3 MHz
Method: person four was diagnosed with terminal hepatoma and liver pain.
(§1) The patient was treated according to the present invention with 30 mg Bleomycin (Frequency: 0.3 MHz; power intensity: less than 2 W/cm^2; duration: less than 30 minutes).

[4] = tested on: metastatic pancreatic cancer to liver; assay: Example 4: patient treated with non-focused sound waves with Bleomycin; assay type: in vivo, human; details: 30 mg Bleomycin + sound waves 0.3 MHz
Method: person three was diagnosed with metastatic pancreatic cancer to liver and has been treated with Palliative bypass operation. No chemotherapy history. They were in very terminal stage with severe jaundice and great pain. They used Fetanyl patch and additional pain medication. The patient was treated according to the present invention with 30 mg Bleomycin (Frequency: 0.3 MHz; power intensity: less than 2 W/cm^2; duration: less than 30 minutes). […] They remained pain free for 4 days till their death due to hepatic failure.

[5] = tested on: metastatic oral cancer to the face; assay: Example 7: patient treated with non-focused sound waves with Bleomycin; assay type: in vivo, human; details: 30 mg Bleomycin + sound waves 0.3 MHz
Method: person six was diagnosed with metastatic oral cancer to the face, and complained of severe facial pain. They have been treated with multiple surgery and chemoradiation. They presented with a large area of metastatic facial mass, and their right eye was bulging due to tumor infiltration.
as §1

metastatic breast cancer = assay: Example 6: patient treated with non-focused sound waves with Bleomycin; assay type: in vivo, human; details: 30 mg Bleomycin + sound waves 0.3 MHz
Method: person two was diagnosed with metastatic breast cancer, and complained of three weeks left shoulder pain.
as §1

[6] = tested on: terminal metastatic ovarian cancer; assay: Example 10: patient treated with non-focused sound waves with Bleomycin; assay type: in vivo, human
Method: person five was diagnosed with terminal metastatic ovarian cancer with colostomy and complained of abdominal pain.
The patient was treated twice (one week apart) according to the present invention combined with 30 mg Bleomycin each time (Frequency: 0.3 MHz; power intensity: less than 2 W/cm^2; duration: less than 30 minutes (each time)). […] They remained pain free for over 8 months till their death due to sepsis.

[7] = tested on: metastatic pancreatic cancer to liver; assay: Example 3: patient treated with non-focused sound waves with Bleomycin; details: 30 mg Bleomycin + sound waves 0.3 MHz
[8] = tested on: recurrent pancreatic cancer; details: human, in vivo
[9] = person two, 30 mg Bleomycin + sound waves 0.3 MHz

How did the “tumor growth in diameter” value ([1]; during at least four months of weekly Gemcitabine, after Bleomycin + sound wave treatments) turn out when `Nc1ccn([C@@H]2O[C@H](CO)[C@@H](O)C2(F)F)c(=O)n1` [Gemcitabine] was run?
The value was 1.4 cm.

For Bleomycin, which “tumor marker CA19-9” value ([2]; decreased from 1465, in 9 days after the treatment) is on record?
The value was 406.

What about the constipation symptom ([2]; person one, after the treatment) of the same compound?
Its constipation symptom is “relieved”.

What about the “pain medication use after treatment” value ([2]; person one, one treatment) of the same compound?
Its value is “has not taken any pain medication since the treatment”.

And the side effect ([2]; person one, one treatment)?
Its side effect is “no side effect was observed”.

And the “patient's pain” value ([2]; person one, one treatment, <2 W/cm^2, <30 min)?
Its value is “dissolved”.

What about the “remained pain free after the treatment” value ([2]; till death due to organ failure) of the same compound?
Its value is 150 days.

And the “right upper quadrant pain” value ([3]; 30 mg Bleomycin twice + sound waves 0.3 MHz)?
Its value is “resolved”.

And the “liver tumor diameter (imaging study), second tumor” value ([3]; decreased from 7 cm, after the first treatment)?
The value was 4 cm.

What about the “liver tumor diameter (imaging study), first tumor” value ([3]; decreased from 10 cm, after the first treatment) of the same compound?
Its value is 7 cm.

What about the side effect [3, 9] of the same compound?
The side effect was “no side effect”.

And the liver tumors size ([3]; person two, after the first of two treatments one week apart, 30 mg Bleomycin each + sound waves 0.3 MHz, <2 W/cm^2, <30 min)?
Its liver tumors size is “significantly decreased in size”.

What about the “follow up imaging studies” value ([3]; several follow up imaging studies, 30 mg Bleomycin twice + sound waves) of the same compound?
The value was “stable liver metastasis”.

And the remained pain free ([3]; till last follow up, 30 mg Bleomycin twice + sound waves)?
Its remained pain free is “over 18 months”.

And the “pain free till death” value (terminal hepatoma)?
Its value is 14 days.

And the side effect (terminal hepatoma; person four)?
Its side effect is “no side effect”.

What about the right quadrant pain (terminal hepatoma; person four, one treatment, <2 W/cm^2, <30 min) of the same compound?
The right quadrant pain was “vanished”.

And the “pain medication use after treatment” value [4]?
The value was “without using anymore pain medication”.

And the side effect ([4]; person three)?
Its side effect is “no side effect was observed”.

What about the “time in which pain vanished” value ([4]; person three, one treatment) of the same compound?
The value was 6 h.

And the pain ([4]; person three, one treatment, <2 W/cm^2, <30 min)?
Its pain is “totally vanished”.

What about the remained pain free ([4]; till death due to hepatic failure) of the same compound?
The remained pain free was 4 days.

What about the jaundice ([1]; after Bleomycin + sound wave treatments and weekly Gemcitabine) of the same compound?
The jaundice was “did not have jaundice”.

What about the blood sugar ([1]; insulin dependent diabetic patient, after the treatment, remained till death) of the same compound?
Its blood sugar is “returned to normal level without using insulin”.

What about the side effect [1, 9] of the same compound?
The side effect was “no side effect was observed”.

And the pancreatic region pain ([1]; person two, after the first treatment, 30 mg Bleomycin + sound waves 0.3 MHz, <2 W/cm^2, <30 min)?
Its pancreatic region pain is “resolved”.

What about the “remained pain free after the treatment” value ([1]; till death, 30 mg Bleomycin three times (third followed by 1000 mg Gemcitabine) + sound waves) of the same compound?
The value was 183 days.

What about the facial tumor size [5] of the same compound?
Its facial tumor size is “decreased in size”.

What about the “right eye (bulging due to tumor infiltration)” value [5] of the same compound?
Its value is “less bulging and could rotate”.

And the side effect ([5]; person six)?
The side effect was “no side effect”.

What about the facial pain ([5]; person six, one treatment, <2 W/cm^2, <30 min) of the same compound?
Its facial pain is “totally resolved”.

What about the remained pain free ([5]; till last follow up) of the same compound?
Its remained pain free is “over 33 days”.

And the pain free duration (metastatic breast cancer)?
Its pain free duration is “over seven months”.

What about the side effect (metastatic breast cancer; person two, one treatment, <2 W/cm^2, <30 min) of the same compound?
The side effect was “no side effect was observed”.

What about the shoulder pain (metastatic breast cancer; till death due to brain metastasis) of the same compound?
Its shoulder pain is “did not have shoulder pain”.

And the side effect ([6]; person five, 30 mg Bleomycin + sound waves 0.3 MHz)?
Its side effect is “no side effect”.

What about the abdominal pain ([6]; person five, after the first of two treatments one week apart, 30 mg Bleomycin each + sound waves 0.3 MHz, <2 W/cm^2, <30 min) of the same compound?
Its abdominal pain is “resolved”.

And the remained pain free ([6]; till death due to sepsis, 30 mg Bleomycin twice + sound waves)?
Its remained pain free is “over 8 months”.

And the pain free [7]?
Its pain free is 32 days.

And the side effect ([7]; person seven)?
Its side effect is “no side effect was observed”.

What about the “patient's pain” value ([7]; person seven, one treatment, <2 W/cm^2, <30 min) of the same compound?
Its value is “totally dissolved”.

What about the “pain medication use after treatment” value ([7]; until death due to sepsis) of the same compound?
Its value is “without using any pain medication”.

What about the body weight [8] of the same compound?
The body weight was “increased”.

What about the “pain medication use after treatment” value [8] of the same compound?
Its value is “has not taken any pain medication since the first treatment till their death”.

And the pain scale [8]?
The pain scale was 0-1.

What about the physical activity [8] of the same compound?
Its physical activity is “returned to near normal”.

What about the “remained pain free after the treatment” value [8] of the same compound?
The value was 170 days.

What about the side effect [8] of the same compound?
The side effect was “no side effect was observed”.

What about the “survival after first diagnosis” value [8] of the same compound?
Its value is “lived two years after their first diagnosis”.
